Experiments:
[1] = biological target: T1, human glucocorticoid receptor (Homo sapiens, UniProt P04150); assay: Glucocorticoid Receptor Binding Assay (I), fluorescence polarization competitor kit (Fluormone GS Red); conditions: GR Binding Assay (I)
T1 construct: purified human recombinant full-length glucocorticoid receptor; purchased Invitrogen Part #2893
T1 sequence (P04150 1-777): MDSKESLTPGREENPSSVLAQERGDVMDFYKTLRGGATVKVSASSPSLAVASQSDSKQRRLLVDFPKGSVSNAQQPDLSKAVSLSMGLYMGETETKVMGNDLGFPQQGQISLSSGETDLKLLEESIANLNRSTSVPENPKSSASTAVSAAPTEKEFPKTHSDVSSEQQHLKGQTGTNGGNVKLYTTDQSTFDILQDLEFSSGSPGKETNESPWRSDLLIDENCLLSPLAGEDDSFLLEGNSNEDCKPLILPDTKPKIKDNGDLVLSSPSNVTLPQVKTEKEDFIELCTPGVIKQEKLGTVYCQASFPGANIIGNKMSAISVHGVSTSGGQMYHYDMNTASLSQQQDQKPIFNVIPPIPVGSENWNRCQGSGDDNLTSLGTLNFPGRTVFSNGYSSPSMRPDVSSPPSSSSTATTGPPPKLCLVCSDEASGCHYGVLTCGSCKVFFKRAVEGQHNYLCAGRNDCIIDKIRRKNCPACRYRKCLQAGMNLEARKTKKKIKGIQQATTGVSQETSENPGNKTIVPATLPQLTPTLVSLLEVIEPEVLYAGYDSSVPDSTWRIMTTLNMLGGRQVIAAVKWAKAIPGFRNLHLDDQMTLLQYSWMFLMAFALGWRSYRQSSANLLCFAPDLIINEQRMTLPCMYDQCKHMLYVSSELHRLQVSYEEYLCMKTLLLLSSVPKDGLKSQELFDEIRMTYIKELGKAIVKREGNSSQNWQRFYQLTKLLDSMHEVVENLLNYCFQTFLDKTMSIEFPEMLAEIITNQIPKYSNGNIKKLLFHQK
Experimental: Glucocorticoid Receptor Binding Assay (I)^a
In order to assess the affinity of test compounds for the human glucocorticoid receptor, a commercially available kit was used (Glucocorticoid Receptor Competitor Assay Kit, Invitrogen Part #2893). Briefly, purified human recombinant full-length glucocorticoid receptor (2 nM) was mixed with fluorescently labeled glucocorticoid (1 nM Fluormone GS Red) in the presence or absence of test compound. After two hour incubation at room temperature in the dark, the fluorescence polarization (FP) of the samples was measured. […] Test compounds were analyzed in the concentration range from 8.5 E-05 μM to 5 μM.

[2] = biological target: T2, human full-length glucocorticoid receptor (Homo sapiens, UniProt P04150); assay: Glucocorticoid Receptor Binding Assay (II), fluorescence polarization competitor kit (Fluormone GS1); conditions: GR Binding Assay (II)
T2 construct: recombinantly expressed human full-length glucocorticoid receptor; purchased PanVera Co., Madison, Wis; P2816
T2 sequence (P04150 1-777): T1 sequence (P04150 1-777)
Experimental: Glucocorticoid Receptor Binding Assay (II)^b
In order to measure the binding of compounds on the glucocorticoid receptor a commercially available kit was used (Glucocorticoid receptor competitor assay kit, PanVera Co., Madison, Wis., P2816). Briefly, a cell lysate containing recombinantly expressed human full-length glucocorticoid receptor was mixed with a fluorescently labeled glucocorticoid (1 nM Fluormone GS1) in the presence or absence of test compound. After one hour at room temperature, the fluorescence polarization (FP) of the samples were measured.

## COc1ccc(C(c2ccccc2)C(C)(C)C(=O)Nc2nncs2)cc1C (single isomer, unassigned) [Example 294, 2,2-dimethyl-3-(3-methyl-4-(methyloxy)phenyl)-3-phenyl-N-1,3,4-thiadiazol-2-ylpropanamide]
[1]
  Ki: 9.22 nM

## CC(C)(C(=O)Nc1nncs1)C(c1ccccc1)c1cccc(Br)c1 (centres unmarked) [Example 312, 3-(3-bromophenyl)-2,2-dimethyl-3-phenyl-N-1,3-thiadiazol-2-ylpropanamide]
[2]
  Ki: 19.9 nM

## CC(C)(C(=O)Nc1nccs1)C(c1ccccc1)c1cccc(C#N)c1 (centres unmarked) [Example 313, 3-(3-cyanophenyl)-2,2-dimethyl-3-phenyl-N-1,3-thiazol-2-ylpropanamide]
[2]
  Ki: 57.6 nM

## CC(C)(C(=O)Nc1nccs1)C(c1ccccc1)c1ccc(Br)c(F)c1 (centres unmarked) [Example 314, 3-(4-bromo-3-fluorophenyl)-2,2-dimethyl-3-phenyl-N-1,3-thiazol-2-ylpropanamide]
[2]
  Ki: 13.2 nM

## CC(C)(C(=O)Nc1nncs1)C(c1ccccc1)c1ccc(Br)c(F)c1 (centres unmarked) [Example 315, 3-(4-bromo-3-fluorophenyl)-2,2-dimethyl-3-phenyl-N-1,3,4-thiadiazol-2-ylpropanamide]
[2]
  Ki: 10.9 nM

## CC(C)(C(=O)Nc1nccs1)C(C)(c1ccccc1)c1ccccc1 [Example 316, 2,2-dimethyl-3,3-diphenyl-N-1,3-thiazol-2-ylbutanamide]
[2]
  Ki: 472 nM

## CC(C)(C(=O)Nc1nccs1)C(c1ccccc1)c1ccc(Br)cc1 (centres unmarked) [Example 317, 3-(4-bromophenyl)-2,2-dimethyl-3-phenyl-N-1,3-thiazol-2-ylpropanamide]
[2]
  Ki: 23.2 nM

## CC(C)(C(=O)Nc1nncs1)C(c1ccccc1)c1ccc(Br)cc1 (centres unmarked) [Example 318, 3-(4-bromophenyl)-2,2-dimethyl-3-phenyl-N-1,3,4-thiadiazol-2-ylpropanamide]
[2]
  Ki: 12.8 nM

## CC(C)(C(=O)Nc1nccs1)[C@@H](c1ccccc1)c1cccc(O)c1 [Example 327, 3-(3-hydroxyphenyl)-2,2-dimethyl-3-phenyl-N-1,3-thiazol-2-ylpropanamide]
[2]
  Ki: 90.9 nM

## CC(C)(C(=O)Nc1nccs1)[C@H](c1ccccc1)c1cccc(O)c1 [Example 328, 3-(3-hydroxyphenyl)-2,2-dimethyl-3-phenyl-N-1,3-thiazol-2-ylpropanamide]
[2]
  Ki: 17.8 nM

## Cc1csc(NC(=O)C(C)(C)[C@@H](c2ccccc2)c2ccc(O)cc2)n1 [Example 329, (3S)-3-(4-hydroxyphenyl)-2,2-dimethyl-N-(4-methyl-1,3-thiazol-2-yl)-3-phenylpropanamide]
[2]
  Ki: 16.8 nM

## Cc1csc(NC(=O)C(C)(C)[C@H](c2ccccc2)c2ccc(O)cc2)n1 [Example 330, (3R)-3-(4-hydroxyphenyl)-2,2-dimethyl-N-(4-methyl-1,3-thiazol-2-yl)-3-phenylpropanamide]
[2]
  Ki: 169 nM

## Cc1cnc(NC(=O)C(C)(C)[C@@H](c2ccccc2)c2ccc(O)cc2)s1 [Example 331, (3S)-3-(4-hydroxyphenyl)-2,2-dimethyl-N-(5-methyl-1,3-thiazol-2-yl)-3-phenylpropanamide]
[2]
  Ki: 18.8 nM

## Cc1cnc(NC(=O)C(C)(C)[C@H](c2ccccc2)c2ccc(O)cc2)s1 [Example 332, (3R)-3-(4-hydroxyphenyl)-2,2-dimethyl-N-(5-methyl-1,3-thiazol-2-yl)-3-phenylpropanamide]
[2]
  Ki: 204 nM

## CC(C)(C(=O)NC1CCC1)[C@@H](c1ccccc1)c1ccc(O)cc1 [Example 333, (3S)-N-cyclobutyl-3-(4-hydroxyphenyl)-2,2-dimethyl-3-phenylpropanamide]
[2]
  Ki: 392 nM

## CC(C)(C(=O)NC1CCC1)[C@H](c1ccccc1)c1ccc(O)cc1 [Example 334, (3R)-N-cyclobutyl-3-(4-hydroxyphenyl)-2,2-dimethyl-3-phenylpropanamide]
[2]
  Ki: 395 nM

## CC(C)(C(=O)NC1CCCC1)[C@H](c1ccccc1)c1ccc(O)cc1 [Example 336, (3R)-N-cyclopentyl-3-(4-hydroxyphenyl)-2,2-dimethyl-3-phenylpropanamide]
[2]
  Ki: 504 nM

## CC(C)(C(=O)N1CCOCC1)[C@@H](c1ccccc1)c1ccc(O)cc1 [Example 337, 4-((1S)-2,2-dimethyl-3-(4-morpholinyl)-3-oxo-1-phenylpropyl)phenol]
[2]
  Ki: 2090 nM

## CCOC(=O)c1csc(NC(=O)C(C)(C)[C@@H](c2ccccc2)c2ccc(O)cc2)n1 [Example 338, ethyl 2-(((3S)-3-(4-hydroxyphenyl)-2,2-dimethyl-3-phenylpropanoyl)amino)-1,3-thiazole-4-carboxylate]
[2]
  Ki: 11.8 nM

## CC(C)(C(=O)Nc1ccccn1)[C@@H](c1ccccc1)c1ccc(O)cc1 [Example 341, (3S)-3-(4-hydroxyphenyl)-2,2-dimethyl-3-phenyl-N-2-pyridinylpropanamide]
[2]
  Ki: 175 nM

## CC(C)(C(=O)Nc1ncns1)[C@@H](c1ccccc1)c1ccc(O)cc1 [Example 342, (3S)-3-(4-hydroxyphenyl)-2,2-dimethyl-3-phenyl-N-1,2,4-thiadiazol-5-ylpropanamide]
[2]
  Ki: 8.1 nM

## CC(C)(C(=O)Nc1nncs1)C(c1ccccc1)c1ccc(O)cc1F (centres unmarked) [Example 344, 3-(2-fluoro-4-hydroxyphenyl)-2,2-dimethyl-3-phenyl-N-1,3,4-thiadiazol-2-ylpropanamide]
[2]
  Ki: 43.2 nM

## CC(C)(C(=O)Nc1nccs1)C(c1ccccc1)c1ccc(O)c(F)c1 (centres unmarked) [Example 346, 3-(3-fluoro-4-hydroxyphenyl)-2,2-dimethyl-3-phenyl-N-1,3-thiazol-2-ylpropanamide]
[2]
  Ki: 16 nM

## CC(C)(C(=O)Nc1nccs1)[C@H](c1ccccc1)c1ccc(O)c(C#N)c1 [Example 358]
[2]
  Ki: 22.9 nM

## CC(=O)Oc1ccc([C@@H](c2ccccc2)C(C)(C)C(=O)Nc2nccs2)cc1 [Example 360, 4-((1R)-2,2-Dimethyl-3-oxo-1-phenyl-3-(1,3-thiazol-2-ylamino)propyl)phenyl acetate]
[2]
  Ki: 21.7 nM

## CC(C)(C(=O)Nc1nccs1)[C@H](c1ccccc1)c1ccc(OC(=O)c2ccco2)cc1 [Example 363, 4-((1R)-2,2-dimethyl-3-oxo-1-phenyl-3-(1,3-thiazol-2-ylamino)propyl)phenyl 2-furancarboxylate]
[2]
  Ki: 47 nM

## CC(C)(C(=O)Nc1nccs1)[C@H](c1ccccc1)c1ccc(OC(=O)c2ccoc2)cc1 [Example 365, 4-((1R)-2,2-dimethyl-3-oxo-1-phenyl-3-(1,3-thiazol-2-ylamino)propyl)phenyl 3-furancarboxylate]
[2]
  Ki: 31.9 nM

## CC(C)(C(=O)Nc1nccs1)[C@H](c1ccccc1)c1ccc(OC(=O)C2CCCO2)cc1 (stereo partly drawn) [Example 367, 4-((1R)-2,2-dimethyl-3-oxo-1-phenyl-3-(1,3-thiazol-2-ylamino)propyl)phenyl tetrahydro-2-furancarboxylate]
[2]
  Ki: 26.9 nM

## CC(=O)c1ccc(C(c2ccccc2)C(C)(C)C(=O)Nc2nccs2)cc1 (centres unmarked) [Example 368, 3-(4-Acetylphenyl)-2,2-dimethyl-3-phenyl-N-1,3-thiazol-2-ylpropanamide]
[2]
  Ki: 19.2 nM

## CC(=O)c1cccc(C(c2ccccc2)C(C)(C)C(=O)Nc2nccs2)c1 (centres unmarked) [Example 370, 3-(3-acetylphenyl)-2,2-dimethyl-3-phenyl-N-1,3-thiazol-2-ylpropanamide]
[2]
  Ki: 60.9 nM

## CC(O)c1ccc(C(c2ccccc2)C(C)(C)C(=O)Nc2nccs2)cc1 (centres unmarked) [Example 371, 3-(4-(1-Hydroxyethyl)phenyl)-2,2-dimethyl-3-phenyl-N-1,3-thiazol-2-ylpropanamide]
[2]
  Ki: 38.1 nM

## CC(O)c1ccc(C(c2ccccc2)C(C)(C)C(=O)Nc2nncs2)cc1 (centres unmarked) [Example 372]
[2]
  Ki: 96.1 nM

## CC(O)c1cccc(C(c2ccccc2)C(C)(C)C(=O)Nc2nccs2)c1 (centres unmarked) [Example 373, 3-(3-(1-hydroxyethyl)phenyl)-2,2-dimethyl-3-phenyl-N-1,3-thiazol-2-ylpropanamide]
[2]
  Ki: 320 nM

## CC(C)(C(=O)Nc1nccs1)C(c1ccccc1)c1ccc(-c2ccncc2)cc1 (centres unmarked) [Example 375, 2,2-dimethyl-3-phenyl-3-(4-(4-pyridinyl)phenyl)-N-1,3-thiazol-2-ylpropanamide]
[2]
  Ki: 11 nM

## CC(C)(C(=O)Nc1nccs1)C(c1ccccc1)c1ccc(-c2ccoc2)cc1 (centres unmarked) [Example 376, 3-(4-(3-furanyl)phenyl)-2,2-dimethyl-3-phenyl-N-1,3-thiazol-2-ylpropanamide]
[2]
  Ki: 15.8 nM

Source: US7968577B2 (Bristol-Myers Squibb Company, priority 2006, dated 2011)
